In ChEMBL document CHEMBL1201862, “PubChem BioAssay data set” (2004):
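In this assay, cells in 96-well plates receive the compound at five concentrations for 48 hours. Endpoints are linearly interpolated between the surrounding concentrations. At the GI50, growth is halved.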 The source made the active and inactive calls. Cut-off read from the data, not from the text of the source: active = GI50 up to about 1.1 µM and inactive = higher.

Experiments:
Assay in all cases: inhibition of tumour cell growth, NCI panel, 48 h
RXF 393 = tested on: RXF 393
LXFL 529 = tested on: LXFL 529
786-0 = tested on: 786-0
M14 = tested on: M14
CCRF-CEM = tested on: CCRF-CEM
UACC-62 = tested on: UACC-62
EKVX = tested on: EKVX
OVCAR-3 = tested on: OVCAR-3
Malme-3M = tested on: Malme-3M
A549 = tested on: A549
SK-MEL-5 = tested on: SK-MEL-5
HT-29 = tested on: HT-29
DMS-114 = tested on: DMS-114
SF-539 = tested on: SF-539
K562 = tested on: K562
TK-10 = tested on: TK-10
ACHN = tested on: ACHN
SNB-78 = tested on: SNB-78
SF-295 = tested on: SF-295
SK-MEL-28 = tested on: SK-MEL-28
SNB-19 = tested on: SNB-19
SR = tested on: SR
OVCAR-5 = tested on: OVCAR-5
COLO 205 = tested on: COLO 205
XF498 = tested on: XF498
KM12 = tested on: KM12
HOP-92 = tested on: HOP-92
DLD-1 = tested on: DLD-1
NCI-H23 = tested on: NCI-H23
MOLT-4 = tested on: MOLT-4
SF-268 = tested on: SF-268
DMS-273 = tested on: DMS-273
U-251 = tested on: U-251
UO-31 = tested on: UO-31
CAKI-1 = tested on: CAKI-1
HCC 2998 = tested on: HCC 2998
SK-MEL-2 = tested on: SK-MEL-2
OVCAR-4 = tested on: OVCAR-4
SNB-75 = tested on: SNB-75
NCI-H522 = tested on: NCI-H522
SW-620 = tested on: SW-620
OVCAR-8 = tested on: OVCAR-8
IGROV-1 = tested on: IGROV-1
NCI-H226 = tested on: NCI-H226
LOX IMVI = tested on: LOX IMVI
HOP-62 = tested on: HOP-62
M19-MEL = tested on: M19-MEL
SK-OV-3 = tested on: SK-OV-3
NCI-H460 = tested on: NCI-H460
HCT-116 = tested on: HCT-116
SN12C = tested on: SN12C
HL-60 = tested on: HL-60
KM-20L2 = tested on: KM-20L2
UACC-257 = tested on: UACC-257
A498 = tested on: A498
HCT-15 = tested on: HCT-15

**Q.** What does the source list for `CN(C)CCCn1cnc2ncccc2c1=O`?
**A.** GI50 (RXF 393): > 100 µM (inactive); GI50 (LXFL 529): > 100 µM (inactive); GI50 (786-0): > 100 µM (inactive); GI50 (M14): > 100 µM (inactive); GI50 (CCRF-CEM): > 100 µM (inactive); GI50 (UACC-62): > 100 µM (inactive); GI50 (EKVX): > 100 µM (inactive); GI50 (OVCAR-3): > 100 µM (inactive); GI50 (Malme-3M): > 100 µM (inactive); GI50 (A549): > 100 µM (inactive); GI50 (SK-MEL-5): > 100 µM (inactive); GI50 (HT-29): > 100 µM (inactive); GI50 (DMS-114): 48.5 µM (inactive); GI50 (SF-539): > 100 µM (inactive); GI50 (K562): > 100 µM (inactive); GI50 (TK-10): > 100 µM (inactive); GI50 (ACHN): > 100 µM (inactive); GI50 (SNB-78): > 100 µM (inactive); GI50 (SF-295): > 100 µM (inactive); GI50 (SK-MEL-28): > 100 µM (inactive); GI50 (SNB-19): > 100 µM (inactive); GI50 (SR): > 100 µM (inactive); GI50 (OVCAR-5): > 100 µM (inactive); GI50 (COLO 205): 55.1 µM (inactive); GI50 (XF498): > 100 µM (inactive); GI50 (KM12): > 100 µM (inactive); GI50 (HOP-92): > 100 µM (inactive); GI50 (DLD-1): > 100 µM (inactive); GI50 (NCI-H23): > 100 µM (inactive); GI50 (MOLT-4): > 100 µM (inactive); GI50 (SF-268): > 100 µM (inactive); GI50 (DMS-273): > 100 µM (inactive); GI50 (U-251): > 100 µM (inactive); GI50 (UO-31): > 100 µM (inactive); GI50 (CAKI-1): > 100 µM (inactive); GI50 (HCC 2998): > 100 µM (inactive); GI50 (SK-MEL-2): > 100 µM (inactive); GI50 (OVCAR-4): > 100 µM (inactive); GI50 (SNB-75): > 100 µM (inactive); GI50 (NCI-H522): > 100 µM (inactive); GI50 (SW-620): > 100 µM (inactive); GI50 (OVCAR-8): > 100 µM (inactive); GI50 (IGROV-1): > 100 µM (inactive); GI50 (NCI-H226): > 100 µM (inactive); GI50 (LOX IMVI): > 100 µM (inactive); GI50 (HOP-62): > 100 µM (inactive); GI50 (M19-MEL): > 100 µM (inactive); GI50 (SK-OV-3): > 100 µM (inactive); GI50 (NCI-H460): > 100 µM (inactive); GI50 (HCT-116): > 100 µM (inactive); GI50 (SN12C): > 100 µM (inactive)

**Q.** How did the GI50 (RXF 393) turn out when `CC(C)(C)C1=CC(=N/N=c2\scc(-c3ccccc3)n2Cc2ccccc2)C=C(C(C)(C)C)C1=O` was run?
**A.** The GI50 was > 100 µM (inactive).

**Q.** What about the GI50 (LXFL 529) of the same compound?
**A.** Its GI50 is > 100 µM (inactive).

**Q.** And the GI50 (786-0)?
**A.** Its GI50 is > 100 µM (inactive).

**Q.** And the GI50 (M14)?
**A.** Its GI50 is > 100 µM (inactive).

**Q.** And the GI50 (CCRF-CEM)?
**A.** The GI50 was > 100 µM (inactive).

**Q.** What about the GI50 (HL-60) of the same compound?
**A.** The GI50 was > 100 µM (inactive).

**Q.** What about the GI50 (UACC-62) of the same compound?
**A.** The GI50 was > 100 µM (inactive).

**Q.** And the GI50 (EKVX)?
**A.** Its GI50 is > 100 µM (inactive).

**Q.** And the GI50 (OVCAR-3)?
**A.** Its GI50 is > 100 µM (inactive).

**Q.** And the GI50 (Malme-3M)?
**A.** Its GI50 is > 100 µM (inactive).

**Q.** And the GI50 (KM-20L2)?
**A.** The GI50 was > 100 µM (inactive).

**Q.** And the GI50 (A549)?
**A.** The GI50 was > 100 µM (inactive).

**Q.** What about the GI50 (SK-MEL-5) of the same compound?
**A.** Its GI50 is > 100 µM (inactive).

**Q.** And the GI50 (HT-29)?
**A.** The GI50 was > 100 µM (inactive).

**Q.** What about the GI50 (DMS-114) of the same compound?
**A.** Its GI50 is > 100 µM (inactive).

**Q.** And the GI50 (SF-539)?
**A.** Its GI50 is > 100 µM (inactive).

**Q.** And the GI50 (K562)?
**A.** Its GI50 is > 100 µM (inactive).

**Q.** What about the GI50 (ACHN) of the same compound?
**A.** The GI50 was > 100 µM (inactive).

**Q.** And the GI50 (UACC-257)?
**A.** The GI50 was > 100 µM (inactive).

**Q.** What about the GI50 (SF-295) of the same compound?
**A.** Its GI50 is > 100 µM (inactive).

**Q.** What about the GI50 (SK-MEL-28) of the same compound?
**A.** Its GI50 is > 100 µM (inactive).

**Q.** And the GI50 (SNB-19)?
**A.** Its GI50 is > 100 µM (inactive).

**Q.** And the GI50 (SR)?
**A.** Its GI50 is > 100 µM (inactive).

**Q.** What about the GI50 (OVCAR-5) of the same compound?
**A.** Its GI50 is > 100 µM (inactive).

**Q.** And the GI50 (A498)?
**A.** The GI50 was > 100 µM (inactive).

**Q.** And the GI50 (COLO 205)?
**A.** The GI50 was > 100 µM (inactive).

**Q.** And the GI50 (XF498)?
**A.** The GI50 was > 100 µM (inactive).

**Q.** And the GI50 (NCI-H23)?
**A.** The GI50 was > 100 µM (inactive).

**Q.** What about the GI50 (MOLT-4) of the same compound?
**A.** The GI50 was > 100 µM (inactive).

**Q.** What about the GI50 (SF-268) of the same compound?
**A.** The GI50 was > 100 µM (inactive).

**Q.** What about the GI50 (DMS-273) of the same compound?
**A.** The GI50 was > 100 µM (inactive).

**Q.** What about the GI50 (U-251) of the same compound?
**A.** Its GI50 is > 100 µM (inactive).

**Q.** And the GI50 (UO-31)?
**A.** Its GI50 is > 100 µM (inactive).

**Q.** What about the GI50 (CAKI-1) of the same compound?
**A.** Its GI50 is > 100 µM (inactive).

**Q.** What about the GI50 (HCC 2998) of the same compound?
**A.** The GI50 was > 100 µM (inactive).

**Q.** And the GI50 (SK-MEL-2)?
**A.** The GI50 was > 100 µM (inactive).

**Q.** And the GI50 (OVCAR-4)?
**A.** The GI50 was > 100 µM (inactive).

**Q.** And the GI50 (SNB-75)?
**A.** Its GI50 is > 100 µM (inactive).

**Q.** What about the GI50 (HCT-15) of the same compound?
**A.** Its GI50 is greater than 100 µM.

**Q.** And the GI50 (SW-620)?
**A.** The GI50 was > 100 µM (inactive).

**Q.** What about the GI50 (OVCAR-8) of the same compound?
**A.** Its GI50 is > 100 µM (inactive).

**Q.** What about the GI50 (NCI-H226) of the same compound?
**A.** Its GI50 is > 100 µM (inactive).

**Q.** And the GI50 (LOX IMVI)?
**A.** Its GI50 is > 100 µM (inactive).

**Q.** What about the GI50 (HOP-62) of the same compound?
**A.** The GI50 was > 100 µM (inactive).

**Q.** What about the GI50 (M19-MEL) of the same compound?
**A.** Its GI50 is > 100 µM (inactive).

**Q.** And the GI50 (NCI-H460)?
**A.** The GI50 was > 100 µM (inactive).

**Q.** And the GI50 (HCT-116)?
**A.** The GI50 was > 100 µM (inactive).

**Q.** And the GI50 (SN12C)?
**A.** The GI50 was > 100 µM (inactive).
